In assay [1] the test system is ciliary artery. The assay is described as follows: Ciliary artery contraction, myograph method (tissue ring contracted with angiotensin II). Details: species or system pig. The source says: For the myographic determinations, a short segment (7-8 mm) of the ciliary arteries of fresh eyes, e.g. pig's eyes, is dissected and cut into small rings of thickness 2 mm under a microscope (cf. for this K. Yao et al. Invest. Ophthalmaol. Vis. Sci. 32, 1791-1798(1991) and M. J. Mulvany, W. Halpern Circ. res. 41, 19-26(1977)). During the preparation, the tissue is immersed in modified Krebs-Ringer bicarbonate solution. These rings (diameter about 200-400 μm) are installed in the myograph system without delay. Such a tissue ring is stretched using two tungsten wires (diameters 30 and 80 μm), the wires being passed through the lumen. One wire is connected to the power transmission, the other to a micromanipulator for adjustment of muscle length. The tissue ring is immersed in a control solution during the experiment (37°; 95% O2; 5% CO2; pH=7.4) and equilibrated for 45 minutes before testing.
The tissue ring is stretched stepwise and at the same time 100 mM KCl is added in each case. The optimum passive tension is then defined as the tension at which the contraction with 100 mM KCl is greatest. For ciliary arteries, an averaged value for the tension of 977 mg±60 mg is found. The active residual tone of this tissue is defmed as the difference between the optimum passive tension and the tension after a maximum relaxation with 10^-6 molar bradykinin. The corresponding tension is 174 mg±38 mg. In all subsequent experiments, the abovementioned tissue rings are slowly stretched at 100 mg intervals until the optimum is reached.
Before the actual experiment, the endothelial function of such a tissue ring is checked for intactness. The tissue rings are challenged to contract by using 3. 10^-7 molar serotonin solution and in the experimental procedure described above. Thereafter it is checked whether a complete relaxation of the contracted tissue ring occurs with 3. 10^-7 molar bradykinin solution. If this condition is fulfilled, the tissue is held to be intact.
Determination of the ciliary artery contraction using the myograph method
After it was verified as described above that the endothelial functions of a tissue ring of a ciliary artery are intact, the tissue ring preparation is incubated (contracted) with 10^-7 M angiotensin II, and then relaxed with various doses of the angiotensin II antagonist valsartan.

Assay [2] relates to perfused isolated pig's eye. Nature of the assay: Ophthalmic flow in the perfused isolated pig's eye. Here is the method:
For the perfusion method on the isolated pig's eye, the fatty tissue which surrounds the extraocular muscles is carefully removed. During this preparation, the ocular globe is surrounded with modified Krebs-Ringer bicarbonate solution at 4° C. The ocular globe is then cannulated under the microscope using a polyethylene cannula (600 μm diameter), namely via the common ophthalmic artery.
Following this preparation, the ocular globe is connected via the polyethylene cannula to a Langendorff perfusion system, and in this way supplied at the latest 1 hour after the start of preparation with a filtered and oxygenated Krebs solution which contains 0.5% albumin.
The catheterization of the common ophthalmic artery guarantees the complete perfusion both of the choroidal and of the retinal tissue and of the small extraocular muscular arteries. The perfused ocular globe is immersed in a thermostated (37° C.) control bath with a glass jacket with the cornea pointed downwards. The overflow rate (ml/min) in the bath corresponds to the ophthalmic flow. Before testing a composition, the ocular globe is equilibrated for 20 minutes. In a control experiment, it is shown that the ophthalmic flow in the experimental procedure selected remains constant for about 120 minutes after the start of the perfusion. All tests are therefore carried out within this time frame.
A perfused isolated pig's eye is first treated as described above with a control solution and then with a solution comprising angiotensin II (10^-6 M). After the determination of the angiotensin II effect, valsartan (10^-5 M) is additionally added on top of the above exposure. The relative ophthalmic flow rate resulting in this way is shown below.

As for `CCCCC(=O)N(Cc1ccc(-c2ccccc2-c2nn[nH]n2)cc1)[C@H](C(=O)O)C(C)C` [valsartan], the “Relative contraction in comparison to 100 mM KCl” value in assay [1] (ciliary artery ring contracted with 10^-7 M angiotensin II, valsartan 10^-5 M) was 0.9 ± 0.45%; in assay [1] (ciliary artery ring contracted with 10^-7 M angiotensin II, valsartan 10^-6 M) it was 0.93 ± 0.4%; in assay [1] (ciliary artery ring contracted with 10^-7 M angiotensin II, valsartan 10^-7 M), 5.15 ± 1.6%; in assay [1] (ciliary artery ring contracted with 10^-7 M angiotensin II, valsartan 10^-8 M), 8.1 ± 1.5%; in assay [1] (ciliary artery ring contracted with 10^-7 M angiotensin II, valsartan 10^-9 M) it was 18.7 ± 2.2%. Moreover, the “Contracting effect of angiotensin II on the ciliary artery” value in assay [1] (valsartan added after 10^-7 M angiotensin II) is “quantitatively abolished”. For the same compound, the “Decrease in the relative ophthalmic flow” value in assay [2] (angiotensin II 10^-6 M plus valsartan 10^-5 M) turned out to be 6.82 ± 3.02%. Also, in assay [2] (valsartan 10^-5 M on top of angiotensin II 10^-6 M), the “Blood flow-decreasing action of angiotensin II” value is given as “strongly reduced”.

For the compound “Angiotensin II: contracting agonist used to contract the ciliary artery and decrease ophthalmic flow (DRVYIHPF; Angiotensin-2; UniProt P01019 25-32, looked up)”, the “Relative contraction in comparison to 100 mM KCl” value in assay [1] (10^-7 M angiotensin II alone, no valsartan (pure angiotensin II effect)) is given as 27.9 ± 8.7%. The “Decrease in the relative ophthalmic flow” value in assay [2] (angiotensin II 10^-6 M alone) worked out at 24.5 ± 3.05%.
